Data on 20 compounds can be found in patent publication US20070117839A1, “Two cyclic cinnamide compound” (Eisai R&D Management Co., Ltd., priority 2005, published 2007).

For the assay, the system named is Aβ 42 Production. In words: Quantification of Aβ peptide in culture of neurons from rat fetus brain (Aβ ELISA). The note with it: Neuron, 72 h; rat primary neuronal culture (embryonic day 18 Wistar rat cerebral cortex), cultured three days after addition of the compound, Aβx-42 ELISA of the medium; read-out: Activity for reducing Aβ 42 Production IC50. The class given is cell-based. As for the experimental part:
Quantification of Aβ Peptide in Culture of Neurons from Rat Fetus Brain
(1) Rat Primary Neuronal Culture
Primary neuronal cultures were prepared from the cerebral cortex of embryonic day 18 Wistar rats (Charles River Japan, Yokohama, Japan). Specifically, the embryos were aseptically removed from pregnant rats under ether anesthesia. The brain was isolated from the embryo and immersed in an ice-cold L-15 medium (Invitrogen Corp. Cat #11415-064, Carlsbad, Calif., USA, or SIGMA L1518, for example). The cerebral cortex was collected from the isolated brain under a stereoscopic microscope. The cerebral cortex fragments collected were enzymatically treated in an enzyme solution containing 0.25% trypsin (Invitrogen Corp. Cat #15050-065, Carlsbad, Calif., USA) and 0.01% DNase (Sigma D5025, St. Louis, Mo., USA) at 37° C. for 30 minutes to disperse the cells. Here, the enzymatic reaction was stopped by adding inactivated horse serum to the solution. The enzymatically treated solution was centrifuged at 1,500 rpm for five minutes to remove the supernatant. 5 to 10 mL of a medium was added to the resulting cell mass. Neurobasal medium (Invitrogen Corp. Cat #21103-049, Carlsbad, Calif., USA) supplemented with 2% B27 supplement (Invitrogen Corp. Cat #17504-044, Carlsbad, Calif., USA), 25 μM 2-mercaptoethanol (2-ME, WAKO Cat #139-06861, Osaka, Japan), 0.5 mM L-glutamine (Invitrogen Corp. Cat #25030-081, Carlsbad, Calif., USA), and Antibiotics-Antimycotics (Invitrogen Corp. Cat #15240-062, Carlsbad, Calif., USA) was used as the medium (Neurobasal/B27/2-ME). However, the above Neurobasal medium not supplemented with 2-ME (Neurobasal/B27) was used for the assay. The cells were redispersed by mild pipetting of the cell mass to which the medium was added. The cell dispersion was filtered through a 40-μm nylon mesh (Cell Strainer, Cat #35-2340, Becton Dickinson Labware, Franklin Lakes, N.J., USA) to remove the remaining cell mass, and thus a neuronal cell suspension was obtained. The neuronal cell suspension was diluted with the medium and then plated in a volume of 100 μl/well at an initial cell density of 5×10^5 cells/cm^2 in a 96-well polystyrene culture plate pre-coated with poly-L or D-lysine (Falcon Cat #35-3075, Becton Dickinson Labware, Franklin Lakes, N.J., USA coated with poly-L-lysine using the method shown below, or BIOCOAT™ cell environments Poly-D-lysine cell ware 96-well plate, Cat #35-6461, Becton Dickinson Labware, Franklin Lakes, N.J., USA). Poly-L-lysine coating was carried out as follows. 100 μg/ml of a poly-L-lysine (SIGMA P2636, St. Louis, Mo., USA) solution was aseptically prepared with a 0.15 M borate buffer (pH 8.5). 100 μl/well of the solution was added to the 96-well polystyrene culture plate and incubated at room temperature for one or more hours or at 4° C. overnight or longer. The coated 96-well polystyrene culture plate was washed with sterile water four or more times, and then dried or rinsed with, for example, sterile PBS or medium, and used for cell plating. The plated cells were cultured in the culture plate at 37° C. in 5% CO2-95% air for one day. Then, the total amount of the medium was replaced with a fresh Neurobasal/B27/2-ME medium, and then the cells were cultured for further three days.
The drug was added to the culture plate on Day 4 of culture as follows. The total amount of the medium was removed from the wells, and 180 μl/well of Neurobasal medium not containing 2-ME and containing 2% B-27 (Neurobasal/B27) was added thereto. A solution of the test compound in dimethyl sulfoxide (hereinafter abbreviated as DMSO) was diluted with Neurobasal/B27 at 10-fold of the final concentration. 20 μl/well of the dilution was added to and sufficiently mixed with the medium. The final DMSO concentration was 1% or less. Only DMSO was added to the control group.
The cells were cultured for three days after addition of the compound, and the total amount of the medium was collected. […]
(ELISA stands for enzyme-linked immunosorbent assay.)

The IC50 is the concentration that gives 50% inhibition. For the compound `COc1cc(/C=C2\CC[C@H]3CC[C@@H](c4ccc(F)c(F)c4F)N3C2=O)ccc1-n1cnc(C)c1` [Example 58, (E)-(3S,8aS)-3-(2,3,4-trifluorophenyl)-6-[3-methoxy-4-(4-methyl-1H-imidazol-1-yl)benzylidene]hexahydroindolizin-5-one], the half-maximal inhibitory concentration (IC50) was determined as 73 nM.
The figure for `COc1cc(/C=C2\CC[C@H]3CC[C@@H](c4cc(F)c(F)c(F)c4)N3C2=O)ccc1-n1cnc(C)c1` [Example 3, (E)-(3S)-(3,4,5-trifluorophenyl)-6-[3-methoxy-4-(4-methyl-1H-imidazol-1-yl)benzylidene]-(9S)-hexahydroindolizin-5-one] is 63 nM.
On to `COc1cc(/C=C2\CC[C@@H]3CC(C)=C[C@@H](c4ccc(F)cc4)N3C2=O)ccc1-n1cnc(C)c1` [Example 49, (E)-(6S,9aR)-6-(4-fluorophenyl)-3-[3-methoxy-4-(4-methyl-1H-imidazol-1-yl)benzylidene]-8-methyl-1,2,3,6,9,9a-hexahydroquinolizin-4-one], for which the IC50 is 210 nM.
The figure for `COc1cc(/C=C2\CC[C@H]3CC[C@@H](c4cc(F)cc(F)c4)N3C2=O)ccc1-n1cnc(C)c1` [Example 64, (E)-(3S,8aS)-3-(3,5-difluorophenyl)-6-[3-methoxy-4-(4-methyl-1H-imidazol-1-yl)benzylidene]hexahydroindolizin-5-one] is 67 nM.
Then `COc1cc(/C=C2\CC[C@@H]3C[C@H](O)C[C@@H](c4cc(F)c(F)c(F)c4)N3C2=O)ccc1-n1cnc(C)c1` [Example 15, (E)-(6S,8S,9aR)-6-(3,4,5-trifluorophenyl)-8-hydroxy-3-[3-methoxy-4-(4-methyl-1H-imidazol-1-yl)benzylidene]octahydroquinolizin-4-one], with 80 nM.
The figure for `COc1cc(/C=C2\C[C@H]3CC[C@@H](c4ccc(F)c(F)c4)N3C2=O)ccc1-n1cnc(C)c1` [Example 54, (E)-(5S,7aR)-5-(3,4-difluorophenyl)-2-[3-methoxy-4-(4-methyl-1H-imidazol-1-yl)benzylidene]hexahydropyrrolidin-3-one] is 254 nM; for `COc1cc(/C=C2\CC[C@@H]3CCC[C@H](c4ccccc4F)N3C2=O)ccc1-n1cnc(C)c1` [Example 44, (E)-(6R,9aS)-6-(2-fluorophenyl)-3-[3-methoxy-4-(4-methyl-1H-imidazol-1-yl)benzylidene]octahydroquinolizin-4-one] it is 94 nM.
With `COc1cc(/C=C2\CC[C@H]3CCC[C@@H](c4ccc(Cl)cc4)N3C2=O)ccc1-n1cnc(C)c1` [Example 92, (6S,9aR)-6-(4-chlorophenyl)-3-{1-[3-methoxy-4-(4-methyl-1H-imidazol-1-yl)phenyl]-(E)-methylidene}octahydroquinolizin-4-one], the IC50 came out at 40 nM.
Then `COc1cc(/C=C2\CC[C@H]3CN(C)C[C@@H](c4cc(F)c(F)c(F)c4)N3C2=O)ccc1-n1cnc(C)c1` [Example 110, (4R,9aS)-7-{1-[3-methoxy-4-(4-methyl-1H-imidazol-1-yl)phenyl]-(E)-methylidene}-2-methyl-4-(3,4,5-trifluorophenyl)octahydropyrido[1,2-a]pyrazin-6-one], with 29 nM; and `COc1ccc([C@@H]2CCC[C@@H]3CC/C(=C\c4ccc(-n5cnc(C)c5)c(OC)c4)C(=O)N32)cc1` [Example 30, (E)-(6S,9aR)-3-[3-methoxy-4-(4-methyl-1H-imidazol-1-yl)benzylidene]-6-(4-methoxyphenyl)octahydroquinolizin-4-one], with 109 nM; and `COc1cc(/C=C2\CC[C@H]3CC[C@@H](c4c(F)cc(F)cc4F)N3C2=O)ccc1-n1cnc(C)c1` [Example 89, (3S,8aS)-6-{1-[3-methoxy-4-(4-methyl-1H-imidazol-1-yl)phenyl]-(E)-methylidene}-3-(2,4,6-trifluorophenyl)hexahydroindolizin-5-one], with 88 nM.
The figure for `COc1cc(/C=C2\CC[C@H]3COC[C@@H](c4ccc(Cl)cc4)N3C2=O)ccc1-n1cnc(C)c1` [Example 96, (4R,9aS)-4-(4-chlorophenyl)-7-{1-[3-methoxy-4-(4-methyl-1H-imidazol-1-yl)phenyl]-(E)-methylidene}hexahydropyrido[2,1-c][1,4]oxazin-6-one] is 65 nM; for `COc1cc(/C=C2\CC[C@H]3CCC[C@@H](c4ccc(F)c(F)c4)N3C2=O)ccc1-n1cnc(C)c1` [Example 90, (6S,9aR)-6-(3,4-difluorophenyl)-3-{1-[3-methoxy-4-(4-methyl-1H-imidazol-1-yl)phenyl]-(E)-methylidene}octahydroquinolizin-4-one] it is 39 nM.
Consider `COc1cc(/C=C2\CC[C@@H]3C[C@@](C)(O)C[C@@H](c4ccc(F)cc4)N3C2=O)ccc1-n1cnc(C)c1` [Example 45, (E)-(6S,8R,9aR)-6-(4-fluorophenyl)-8-hydroxy-3-[3-methoxy-4-(4-methyl-1H-imidazol-1-yl)benzylidene]-8-methyloctahydroquinolizin-4-one], for which the IC50 is 160 nM.
Then `COc1cc(/C=C2\CC[C@H]3CC[C@@H](c4cc(F)c(F)cc4F)N3C2=O)ccc1-n1cnc(C)c1` [Example 57, (E)-(3S,8aS)-3-(2,4,5-trifluorophenyl)-6-[3-methoxy-4-(4-methyl-1H-imidazol-1-yl)benzylidene]hexahydroindolizin-5-one], with 62 nM; and `COc1cc(/C=C2\CC[C@@H]3CCC[C@@H](c4cc(F)c(F)c(F)c4)N3C2=O)ccc1-n1cnc(C)c1` [Example 13, (E)-(6S,9aS)-6-(3,4,5-trifluorophenyl)-3-[3-methoxy-4-(4-methyl-1H-imidazol-1-yl)benzylidene]octahydroquinolizin-4-one], with 91 nM; and `COc1cc(/C=C2\CC[C@@H]3C[C@@H](O)C[C@@H](c4cc(F)c(F)c(F)c4)N3C2=O)ccc1-n1cnc(C)c1` [Example 17, (E)-(6S,8R,9aR)-6-(3,4,5-trifluorophenyl)-8-hydroxy-3-[3-methoxy-4-(4-methyl-1H-imidazol-1-yl)benzylidene]octahydroquinolizin-4-one], with 68 nM.
For `COc1cc(/C=C2\CC[C@H]3CC[C@@H](c4ccc(F)c(F)c4)N3C2=O)ccc1-n1cnc(C)c1` [Example 6, (E)-(3S)-(3,4-difluorophenyl)-6-[3-methoxy-4-(4-methyl-1H-imidazol-1-yl)benzylidene]-(9S)-hexahydroindolizin-5-one], the IC50 was 120 nM.
Then `COc1cc(/C=C2\CC[C@@H]3CCC[C@@H](c4ccc(F)c(F)c4)N3C2=O)ccc1-n1cnc(C)c1` [Example 65, (E)-(6S,9aS)-6-(3,4-difluorophenyl)-3-[3-methoxy-4-(4-methyl-1H-imidazol-1-yl)benzylidene]octahydroquinolizin-4-one], with 68 nM.
Take `COc1cc(/C=C2\CC[C@H]3CCC[C@@H](c4cc(F)c(F)c(F)c4)N3C2=O)ccc1-n1cnc(C)c1` [Example 91, (6S,9aR)-6-(3,4,5-trifluorophenyl)-3-{1-[3-methoxy-4-(4-methyl-1H-imidazol-1-yl)phenyl]-(E)-methylidene}octahydroquinolizin-4-one]: the half-inhibitory concentration (IC50) was determined as 33 nM.
